Tests used:
CL-K1 [1] = target: T1, CL-K1 (Homo sapiens, UniProt Q9BWP8); assay: Glycan-array screen with fluorophore-labelled CL-K1; type: binding; parameters: For full-length protein, the cDNA was cloned into the polylinker region of expression vector pED; made in house; host or cells: Chinese hamster ovary cells; conditions: for relative fluorescence, With Ca^2+ / relative fluorescence, Without Ca^2+: glycan array, ± SE from six replicates; for relative fluorescence, With Ca^2+: CL-K1 200 μg/ml; for relative fluorescence, With Ca^2+ / glycan-array binding by CL-K1: with Ca2+; for relative fluorescence, Without Ca^2+: without Ca2+
Text: To examine binding to individual glycans, fluorophore-labelled CL-K1 was used to probe a broad screen of mammalian carbohydrates using the Core H Glycan array technology facility at The Consortium for Functional Glycomics. […] The relative fluorescence signal provides an accurate indication of the order of affinities. Consistent with the glycoprotein data, the best ligands were all high-mannose oligosaccharides (Figure 2A and Additional file 1), but not all of these were recognised. Mammalian high-mannose structures comprise a Man5 core attached to the protein via two GlcNAc residues, with α1-2 linked sugars at the non-reducing termini (Figure 2C). CL-K1 only recognised those structures containing at least one terminal Man(α1-2)Man epitope. For example, it bound tightly to Man6, Man7, Man8 and Man9 but not to the Man5 core (ligand 310) that comprises only α1-3 and α1-6 linkages. […] This pattern of recognition is different from other collectins, such as MBL and pulmonary-surfactant protein D that typically recognise the terminal sugar alone (mannose, fucose or N-acetyglucosamine). It is also different from other C-type lectins, such as DC-SIGN or DC-SIGNR that target larger high-mannose oligosaccharides preferentially (Man5 to Man9). To quantify the differences in affinities, we compared binding to three different epitopes that all form part of a high-mannose oligosaccharide. […] Thus, CL-K1 primarily recognises the terminal disaccharide of the glycan, rather than the terminal sugar alone, explaining its unusual binding properties.
Labelled protein (70 μL) was applied to the printed surface of the microarray chip coated with natural and synthetic glycans via amino linkers. The chip was covered and incubated at room temperature in a humidified chamber for one hour. Binding was detected by measuring the fluorescence associated with each glycan. Data are the average of six replicates.
Target sequence in this assay (Q9BWP8 26-271): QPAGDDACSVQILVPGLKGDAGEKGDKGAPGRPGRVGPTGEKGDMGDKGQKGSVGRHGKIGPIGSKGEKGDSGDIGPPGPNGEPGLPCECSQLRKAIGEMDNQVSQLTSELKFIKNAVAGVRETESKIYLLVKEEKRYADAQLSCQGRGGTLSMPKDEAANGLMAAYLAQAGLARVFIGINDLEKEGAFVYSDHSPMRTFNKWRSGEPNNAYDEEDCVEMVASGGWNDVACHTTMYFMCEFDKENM

complement component C3b = assay: Complement activation: C3b deposition on mannan in lectin-depleted human serum; type: biochemical; conditions: 1/100 human serum depleted of endogenous lectins
Method: (§1) Figure 1 Glycoprotein binding and complement activation by CL-K1. A) Immunoblot of CL-K1 binding to immobilised mammalian and yeast glycoproteins. B) Surface plasmon resonance of CL-K1 binding to glycoproteins. […] C3b and its breakdown products were detected by absorbance using an anti-human C3c antibody with alkaline phosphatase-conjugated goat anti-rabbit secondary antibody and p-nitrophenyl phosphate as the substrate. Protein concentrations were calculated based on the molecular masses of CL-K1 and MBL trimers (78 kDa in each case). CL-K1, collectin-K1; MBL, mannan-binding lectin.
After incubation at 37°C for one hour and washes with buffer containing 0.5% Tween-20, C3b was detected using rabbit anti-human C3c antibody (Dako UK Ltd (Ely, UK)) with alkaline phosphatase-conjugated goat anti-rabbit secondary antibody (Sigma) and p-nitrophenyl phosphate as the substrate.

yeast invertase = assay: Binding of biotinylated invertase to full length CL-K1 and trimeric fragments; conditions: plates coated with CL-K1 protein
Text: Figure 6 Characterisation of CL-K1 fragments containing disease-associated mutations. […] The elution positions of conalbumin (75 kDa), ovalbumin (44 kDa) and ribonuclease A (13.7 kDa) are indicated. […] Bottom, None of the three CL-K1 variants interacts with the column, even in the presence of Ca^2+. B) CD spectra of the wild-type CL-K1 fragment and the disease-associated CL-K1 variants. […] Values are the mean ± error from duplicate measurements. Tighter binding of the full-length protein is due to its increased avidity. CL-K1, collectin-K1; EDTA, ethylenediaminetetraacetic acid.
After washing, wells were incubated with 1:2000 dilution of goat peroxidase conjugated anti-biotin antibody (Sigma) and developed with tetramethylbenzidine (Sigma). Absorbance was measured at 450 nm.

[2] = tested on: Chinese hamster ovary cells; assay: Secretion of wild type and variant CL-K1s from mammalian cells (immunoblot of medium); type: cell-based; conditions: transfected CHO cells, serum-free medium, anti-CL-K1 immunoblot
Text: Figure 5 No secretion of variant CL-K1s containing mutations associated with 3MC syndrome. A) Structure of the CRD of CL-K1 showing the position of mutations associated with 3MC syndrome. Secondary structure features are labelled based on the structure of MBL [38]. Polar interactions are indicated by dotted lines. B) Secretion of wild type and variant CL-K1s from mammalian cells. […] Secreted CL-K1 was detected using rabbit polyclonal anti-CL-K1 antibodies. Purified wild-type CL-K1 (approximately 20 ng) was used as a positive control. CL-K1, collectin-K1; CRD, carbohydrate-recognition domain; MBL, mannan-bindng lectin; 3MC, Carnevale, Mingarelli, Malpuech and Michels.
For full-length protein, the cDNA was cloned into the polylinker region of expression vector pED [29] and protein was produced in Chinese hamster ovary cells and purified by affinity chromatography on mannose-Sepharose columns as described previously for MBL [28, 30]. […] Cells were grown in Power Prime broth (Molecular Dimensions Limited (Newmarket, UK)), induced during mid-log phase with IPTG (1 mM), and harvested after growth at 37°C for an additional 16 hours.

CL-K1 [3] = target: T1, CL-K1; assay: Surface plasmon resonance of CL-K1 binding to glycoproteins; parameters: For full-length protein, the cDNA was cloned into the polylinker region of expression vector pED; made in house; host or cells: Chinese hamster ovary cells; conditions: glycoprotein starting concentration 200 nM
Method: as §1
Target sequence in this assay (Q9BWP8 26-271): as above
CL-K1 was immobilised on the surface of a GLM sensor chip (Bio-Rad Laboratories Ltd (Hemel Hempstead, UK)) by amine coupling. Binding was measured in 10 mM Tris–HCl, pH 7.4 containing 140 mM NaCl, 2 mM CaCl2 and 0.005% Tween 20 at a flow rate of 25 μl/minute and at 25°C. The protein surface was regenerated in buffer containing 1 M NaCl and 5 mM EDTA.

CL-K1 [4] = target: T1, CL-K1; assay: Immunoblot of CL-K1 binding to immobilised glycoproteins; parameters: For full-length protein, the cDNA was cloned into the polylinker region of expression vector pED; made in house; host or cells: Chinese hamster ovary cells; conditions: biotinylated CL-K1 0.06 mg/ml, glycoproteins spotted on nitrocellulose
Method: as §1
Target sequence in this assay (Q9BWP8 26-271): as above
Two-fold serial dilutions of glycoprotein (0.5 μl at a starting concentration of 2 mg/ml) were spotted on to a nitrocellulose membrane and allowed to dry for 30 minutes at room temperature. […] After washing, the membrane was incubated with Streptavidin-ALP conjugate (2ug/ml; Life Technologies Ltd (Paisley, UK)) and developed with BCIP-NBT substrate (Sigma).

CL-K1 [5] = target: T1, CL-K1; assay: Proteolysis of CL-K1 by trypsin at increasing Ca2+ concentrations; type: binding; parameters: made in house; conditions: trypsin 0.5% (w/w), read-out: apparent KD for calcium
Method: (§2) Figure 4 Ca^2+ stabilises the CRDs of CL-K1. A) Fluorescence spectra of the CL-K1 fragment in different buffers. The λex was 280 nm. B) Ca^2+ binding to the CL-K1 fragment measured by fluorescence. […] C) Urea denaturation in the presence and absence of Ca^2+ (2 mM). […] Samples were separated by SDS-PAGE and gels were scanned to determine the amount of CL-K1 remaining. The amount of trypsin was 0.5% (w/w). The intensities of bands corresponding to the neck and CRD and the CRD alone were combined. A sample gel is shown in F). E) Proteolysis of CL-K1 in the presence and absence of Ca^2+. Two fold serial dilutions of trypsin were used at a starting concentration of 2% (w/w). In all experiments data are mean ± error from two separate experiments. CL-K1, collectin-K1; CRD, carbohydrate-recognition domain.
Target sequence in this assay (Q9BWP8 116-271): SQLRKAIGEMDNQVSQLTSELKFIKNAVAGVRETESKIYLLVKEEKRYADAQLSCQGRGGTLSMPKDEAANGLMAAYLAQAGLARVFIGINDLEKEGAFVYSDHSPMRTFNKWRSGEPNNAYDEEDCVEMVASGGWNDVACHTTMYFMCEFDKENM

CL-K1 fragment = target: T2, CL-K1 fragment (Homo sapiens, UniProt Q9BWP8); assay: Ca2+ binding to the CL-K1 fragment measured by intrinsic fluorescence
T2 construct: made in house
Method: as §2
All experiments were carried out using a Fluoromax-4 (Horiba Jobin Yvon, Horiba UK Ltd (Middlesex, UK)) instrument with excitation wavelength at 280 nm, slit widths of 2 nm and emission wavelength range of 300 to 400 nm. The λex was 280 nm. Protein samples (0.5 μM) in 10 mM Tris–HCl, pH 7.4 containing 140 mM NaCl were measured in the presence of 2 mM CaCl2, 1 mM EDTA and 6 M urea.

CL-K1 [6] = target: T1, CL-K1; assay: Inhibition of CL-K1 binding to immobilized yeast invertase by high-mannose epitopes; parameters: For full-length protein, the cDNA was cloned into the polylinker region of expression vector pED; made in house; host or cells: Chinese hamster ovary cells; conditions: relative to Man(α1-2)Man IC50 of 0.02 mM
Target sequence in this assay (Q9BWP8 26-271): as the sequence (Q9BWP8 26-271) above

T2 sequence (Q9BWP8 116-271): as the sequence (Q9BWP8 116-271) above

Compound | relative fluorescence, With Ca^2+ (CL-K1 [1]) | relative fluorescence, Without Ca^2+ (CL-K1 [1]) | other results
CC1OC(O)C(O)C(O)C1O (stereo not shown) [compound 10] | 431 ± 27 | 1097 ± 138 | 
CL-K1: full-length recombinant human collectin-K1 produced in Chinese hamster ovary cells |  |  | complement activation, fold lower activity than human MBL (complement component C3b): 2.5 fold; binding to yeast invertase (yeast invertase): bound; secretion into medium [2]: secreted
Invertase: yeast invertase glycoprotein from Sigma-Aldrich |  |  | binding to CL-K1 by surface plasmon resonance (CL-K1 [3]): bound tightly; binding of CL-K1 on blot (CL-K1 [4]): binding
OC[C@H]1O[C@H](O)[C@H](O)[C@@H](O)[C@H]1O [compound 6] | 294 ± 167 | 870 ± 157 | 
[Ca+2] [Ca^2+] |  |  | Kd (CL-K1 [5]): ~1000 µM; Kd (CL-K1 fragment; read-out: KD for Ca2+ by titration): 430 µM; Hill coefficient of Ca2+ binding (CL-K1 fragment; trimeric neck+CRD fragment, intrinsic fluorescence): 2.4
OC[C@H]1O[C@H](O)[C@@H](O)[C@@H](O)[C@@H]1O [compound 8] | 566 ± 230 | 1156 ± 233 | 
OC[C@H]1OC(O)[C@@H](O)[C@@H](O)[C@@H]1O (stereo partly shown) [mannose] |  |  | fold by which inhibition by Man(α1-2)Man is greater than for this ligand (CL-K1 [6]): > 300 fold
Mannan |  |  | binding to CL-K1 by surface plasmon resonance (CL-K1 [3]): bound tightly; binding of CL-K1 on blot (CL-K1 [4]): binding
fetuin: Bovine fetuin from Sigma-Aldrich |  |  | binding of CL-K1 on blot (CL-K1 [4]): not
NCCCCCO[C@H]1O[C@H](CO[C@H]2O[C@H](CO[C@H]3O[C@H](CO)[C@@H](O)[C@H](O)[C@@H]3O[C@H]3O[C@H](CO)[C@@H](O)[C@H](O)[C@@H]3O)[C@@H](O)[C@H](O[C@H]3O[C@H](CO)[C@@H](O)[C@H](O)[C@@H]3O[C@H]3O[C@H](CO)[C@@H](O)[C@H](O)[C@@H]3O)[C@@H]2O)[C@@H](O)[C@H](O[C@H]2O[C@H](CO)[C@@H](O)[C@H](O)[C@@H]2O[C@H]2O[C@H](CO)[C@@H](O)[C@H](O)[C@@H]2O[C@H]2O[C@H](CO)[C@@H](O)[C@H](O)[C@@H]2O)[C@@H]1O [ligand 312, Manα1-2Manα1-2Manα1-3(Manα1-2Manα1-6(Manα1-2Manα1-3)Manα1-6)Manα-Sp9] |  |  | glycan-array binding by CL-K1 (CL-K1 [1]): bound tightly
OC[C@H]1O[C@H](O)[C@H](O)[C@@H](O)[C@@H]1O [compound 7] | 250 ± 80 | 952 ± 297 | 
thyroglobulin: Bovine thyroglobulin from GE Healthcare |  |  | binding of CL-K1 on blot (CL-K1 [4]): binding

Further lines, with some results ahead:

relative fluorescence, With Ca^2+ (CL-K1 [1]) | relative fluorescence, Without Ca^2+ (CL-K1 [1]) | Compound | other results
941 ± 308 | 4062 ± 774 | OC[C@H]1O[C@@H](O)[C@H](O)[C@@H](O)[C@H]1O [compound 16] | 
831 ± 505 | 4473 ± 1785 | OC[C@H]1O[C@@H](O)[C@H](O)[C@@H](O)[C@@H]1O [compound 17] | 
1000 ± 468 | 768 ± 303 | OCC1OC(OCC2OC(OCC3OC(O)C(O)C(OC4OC(CO)C(O)C(O)C4O)C3O)C(O)C(OC3OC(CO)C(O)C(O)C3O)C2O)C(O)C(O)C1O (stereo not shown) [compound 310] | glycan-array binding by CL-K1 (CL-K1 [1]): not
499 ± 293 | 1798 ± 141 | CC(=O)N[C@@H]1[C@@H](O)[C@H](O)[C@@H](CO)O[C@H]1O [compound 21] | 
99 ± 9 | 570 ± 170 | OC[C@H]1O[C@@H](O)[C@@H](O)[C@@H](O)[C@@H]1O [compound 18] | 
546 ± 98 | 1922 ± 358 | CC1OC(O)C(O)C(O)C1O (stereo not shown) [compound 11] | 
170 ± 91 | 535 ± 116 | CC(=O)N[C@@H]1[C@@H](O)[C@H](O)[C@@H](CO)O[C@H]1O [compound 20] | 
